Assay results reported in patent US12247028B2, “Azabicyclo and diazepine derivatives” (Alcon Inc., priority 2017, dated 2025).
Like-named read-outs stand apart in the source and are kept apart here.

Columns and labels:
[1] = target: T1, Human muscarinic receptor M5 (Homo sapiens, UniProt P08912); experiment: Human muscarinic receptor assay M5, [3H]4-DAMP binding
T1 construct: host or cells: cell membrane homogenates
T1 sequence (P08912 1-532): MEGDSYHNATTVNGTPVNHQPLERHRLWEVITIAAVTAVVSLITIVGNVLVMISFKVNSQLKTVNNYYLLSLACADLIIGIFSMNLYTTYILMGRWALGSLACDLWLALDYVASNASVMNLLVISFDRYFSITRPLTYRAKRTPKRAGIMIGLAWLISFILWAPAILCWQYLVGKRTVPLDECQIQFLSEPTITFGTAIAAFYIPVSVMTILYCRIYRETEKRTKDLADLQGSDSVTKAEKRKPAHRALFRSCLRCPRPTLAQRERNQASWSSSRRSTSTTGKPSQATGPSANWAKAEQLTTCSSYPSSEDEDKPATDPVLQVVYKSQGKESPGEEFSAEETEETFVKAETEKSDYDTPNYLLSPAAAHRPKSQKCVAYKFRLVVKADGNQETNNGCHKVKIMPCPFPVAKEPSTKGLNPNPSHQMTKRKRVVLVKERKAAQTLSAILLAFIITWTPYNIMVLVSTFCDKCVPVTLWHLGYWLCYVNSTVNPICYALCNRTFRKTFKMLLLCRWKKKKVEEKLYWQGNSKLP
Experimental: (§1) Human Muscarinic Receptor Assay
(§2) Cell membrane homogenates (15 μg protein) are incubated for 60 min at 22° C. with 0.3 nM [3H]4-DAMP in the absence or presence of the test compound in a buffer containing 10 mM Tris-HCl (pH 7.4) and 2 mM EDTA. Nonspecific binding is determined in the presence of 1 μM atropine. Following incubation, the samples are filtered rapidly under vacuum through glass fiber filters (GF/B, Packard) presoaked with 0.3% PEI and rinsed several times with ice-cold 50 mM Tris-HCl using a 96-sample cell harvester (Unifilter, Packard). The filters are dried then counted for radioactivity in a scintillation counter (Topcount, Packard) using a scintillation cocktail (Microscint 0, Packard). The results are expressed as a percent inhibition of the control radioligand specific binding. The standard reference compound is 4-DAMP, which is tested in each experiment at several concentrations to obtain a competition curve from which its Ki and IC50 are calculated.

[2] = target: T2, Human muscarinic receptor M4 (Homo sapiens, UniProt P08173); experiment: Human muscarinic receptor assay M4, [3H]4-DAMP binding
T2 construct: host or cells: cell membrane homogenates
T2 sequence (P08173 1-479): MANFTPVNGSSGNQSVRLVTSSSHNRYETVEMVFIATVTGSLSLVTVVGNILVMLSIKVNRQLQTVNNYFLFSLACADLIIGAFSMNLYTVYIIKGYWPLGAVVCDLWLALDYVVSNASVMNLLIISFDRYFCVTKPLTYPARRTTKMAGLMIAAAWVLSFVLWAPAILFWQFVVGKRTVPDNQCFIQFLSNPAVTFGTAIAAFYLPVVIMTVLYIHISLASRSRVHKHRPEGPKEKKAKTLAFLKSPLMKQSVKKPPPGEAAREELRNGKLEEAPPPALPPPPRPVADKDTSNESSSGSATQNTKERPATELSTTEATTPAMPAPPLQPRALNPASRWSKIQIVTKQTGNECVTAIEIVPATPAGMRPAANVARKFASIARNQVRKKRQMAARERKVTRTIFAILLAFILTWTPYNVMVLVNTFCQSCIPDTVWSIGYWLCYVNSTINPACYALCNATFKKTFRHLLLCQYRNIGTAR
Experimental: as §1
as §2, with “membrane homogenates (16 μg protein)” for “membrane homogenates (15 μg protein)”, “C. with 0.2 nM [3H]4-DAMP” for “C. with 0.3 nM [3H]4-DAMP”

[3] = target: T3, Human muscarinic receptor M2 (Homo sapiens, UniProt P08172); experiment: Human muscarinic receptor assay M2, [3H]AF-DX 384 binding; details: for inhibition at 1 µM: read-out: percent inhibition of the control radioligand specific binding, M2
T3 construct: host or cells: cell membrane homogenates
T3 sequence (P08172 1-466): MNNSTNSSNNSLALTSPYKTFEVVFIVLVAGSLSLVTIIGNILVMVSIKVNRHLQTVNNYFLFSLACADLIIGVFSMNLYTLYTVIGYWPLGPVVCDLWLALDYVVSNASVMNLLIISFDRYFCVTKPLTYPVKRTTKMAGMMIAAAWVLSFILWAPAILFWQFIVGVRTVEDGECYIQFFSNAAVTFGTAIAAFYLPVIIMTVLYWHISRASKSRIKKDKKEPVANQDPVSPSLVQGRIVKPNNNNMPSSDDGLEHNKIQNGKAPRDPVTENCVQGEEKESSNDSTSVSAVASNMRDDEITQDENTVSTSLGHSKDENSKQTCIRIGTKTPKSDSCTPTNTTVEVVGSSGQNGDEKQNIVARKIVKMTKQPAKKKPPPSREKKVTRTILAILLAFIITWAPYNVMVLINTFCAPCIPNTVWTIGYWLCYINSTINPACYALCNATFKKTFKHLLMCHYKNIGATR
Experimental: as §1
(§3) Cell membrane homogenates (60 μg protein) are incubated for 60 min at 22° C. with 2 nM [3H]AF-DX 384 in the absence or presence of the test compound in a buffer containing 50 mM Tris-HCl (pH 7.4), 120 mM NaCl, 5 mM KCl, 5 mM MgCl2 and 1 mM EDTA. Nonspecific binding is determined in the presence of 1 μM atropine. Following incubation, the samples are filtered rapidly under vacuum through glass fiber filters (GF/B, Packard) presoaked with 0.3% PEI and rinsed several times with ice-cold 50 mM Tris-HCl using a 96-sample cell harvester (Unifilter, Packard). The filters are dried then counted for radioactivity in a scintillation counter (Topcount, Packard) using a scintillation cocktail (Microscint 0, Packard). The results are expressed as a percent inhibition of the control radioligand specific binding. The standard reference compound is methoctramine, which is tested in each experiment at several concentrations to obtain a competition curve from which its Ki and IC50 are calculated.

[4] = target: T4, Human muscarinic receptor M3 (Homo sapiens, UniProt P20309); experiment: Human muscarinic receptor assay M3, [3H]4-DAMP binding; details: for Ki: 0.2 nM [3H]4-DAMP, cell membrane homogenates
T4 construct: host or cells: cell membrane homogenates
T4 sequence (P20309 whole entry): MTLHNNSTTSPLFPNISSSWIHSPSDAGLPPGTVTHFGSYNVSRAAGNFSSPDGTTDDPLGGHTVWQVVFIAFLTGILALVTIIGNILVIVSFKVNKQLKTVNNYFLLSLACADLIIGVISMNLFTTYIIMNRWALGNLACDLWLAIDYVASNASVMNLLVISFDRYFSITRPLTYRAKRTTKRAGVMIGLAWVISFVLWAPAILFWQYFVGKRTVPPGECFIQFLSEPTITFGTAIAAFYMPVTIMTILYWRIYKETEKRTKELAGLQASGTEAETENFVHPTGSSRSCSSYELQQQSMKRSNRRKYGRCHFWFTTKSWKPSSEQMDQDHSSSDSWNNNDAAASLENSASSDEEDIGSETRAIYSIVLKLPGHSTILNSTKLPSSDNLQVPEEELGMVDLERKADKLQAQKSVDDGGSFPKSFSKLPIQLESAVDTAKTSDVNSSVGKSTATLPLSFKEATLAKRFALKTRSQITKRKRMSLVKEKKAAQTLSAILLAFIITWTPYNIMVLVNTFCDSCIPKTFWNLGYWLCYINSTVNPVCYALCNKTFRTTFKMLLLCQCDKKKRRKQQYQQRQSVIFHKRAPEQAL
Experimental: as §1
as §2, with “membrane homogenates (8 μg protein)” for “membrane homogenates (15 μg protein)”, “C. with 0.2 nM [3H]4-DAMP” for “C. with 0.3 nM [3H]4-DAMP”

[5] = target: T5, Human muscarinic receptor M1 (Homo sapiens, UniProt P11229); experiment: Human muscarinic receptor assay M1, [3H]pirenzepine binding; details: 2 nM [3H]pirenzepine, cell membrane homogenates
T5 construct: host or cells: cell membrane homogenates
T5 sequence (P11229 1-460): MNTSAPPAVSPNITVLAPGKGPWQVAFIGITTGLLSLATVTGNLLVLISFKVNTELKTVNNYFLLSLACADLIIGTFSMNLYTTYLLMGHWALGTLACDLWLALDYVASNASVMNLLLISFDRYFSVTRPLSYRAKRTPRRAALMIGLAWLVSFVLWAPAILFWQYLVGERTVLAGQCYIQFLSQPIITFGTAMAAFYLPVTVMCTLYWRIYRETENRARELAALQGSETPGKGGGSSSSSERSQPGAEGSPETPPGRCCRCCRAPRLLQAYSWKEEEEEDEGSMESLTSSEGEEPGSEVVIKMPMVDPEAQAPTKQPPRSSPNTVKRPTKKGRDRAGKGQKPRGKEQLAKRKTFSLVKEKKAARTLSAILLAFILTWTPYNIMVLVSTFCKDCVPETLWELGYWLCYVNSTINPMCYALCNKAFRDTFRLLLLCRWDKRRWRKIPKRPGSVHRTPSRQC
Experimental: as §1
as §3, with “(45” for “(60”, “[3H]pirenzepine” for “[3H]AF-DX 384”, “pirenzepine,” for “methoctramine,”

[6] = topical 1% drop; cited from earlier work
[7] = 0.3 nM [3H]4-DAMP, cell membrane homogenates, read-out: Ki M5

| SMILES | Ki [1] [nM] | Ki [2] [nM] | Ki [3] [nM] | Ki [4] [nM] | Ki [5] [nM] | efficacy in the treatment of myopia [6] | side effects [6] | inhibition at 1 µM [3] [%] | Ki [1, 7] [nM] | Ki ([2]; 0.2 nM [3H]4-DAMP, cell membrane homogenates, read-out: Ki M4) [nM] | inhibition at 1 µM ([4]; @ 1 μM, read-out: percent inhibition of the control radioligand specific binding, M3) [%] | inhibition at 1 µM ([2]; read-out: percent inhibition of the control radioligand specific binding, M4) [%] | Ki ([3]; 2 nM [3H]AF-DX 384, cell membrane homogenates, read-out: Ki M2) [nM] |
| --- | --- | --- | --- | --- | --- | --- | --- | --- | --- | --- | --- | --- | --- |
| CN1C2CCC1CC(OC(=O)C(C)(CF)c1ccccc1)C2 (stereo not shown) | 7.2 | 5.8 | 110 | 14 | 27 |  |  |  |  |  |  |  |  |
| CN1[C@@H]2CC[C@H]1C[C@@H](OC(=O)C(CO)c1ccccc1)C2 (stereo partly shown) [atropine] |  |  |  |  |  | effective | numerous side effects were reported, including mydriasis (dilation of the pupil) and blurring of near vision due to cycloplegia |  |  |  |  |  |  |
| CN1C2CCC1CC(OC(=O)C(CO)(Cc1ccc(F)cc1)c1ccccc1)C2 (stereo not shown) | 160 | 200 |  | 310 | 300 |  |  | < 50 |  |  |  |  |  |
| CCC(CO)(C(=O)OC1CC2CCC(C1)N2C)c1ccccc1 (stereo not shown) | 1.1 | 0.71 | 35 | 1.3 | 4.4 |  |  |  |  |  |  |  |  |
| CN1C2CCC1CC(OC(=O)C(C)(CO)c1cccs1)C2 (stereo not shown) | 0.71 | 0.39 | 7.9 | 0.78 | 2.5 |  |  |  |  |  |  |  |  |
| CN1C2CCC1CC(OC(=O)C(CO)(Cc1ccccc1)c1ccccc1)C2 (stereo not shown) |  |  |  |  | 600 |  |  | < 50 | 280 | 230 | < 50 |  |  |
| COc1ccc(CC(CO)(C(=O)OC2CC3CCC(C2)N3C)c2ccccc2)cc1 (stereo not shown) |  |  |  | 610 | 570 |  |  | < 50 | 320 |  |  | < 50 |  |
| CN1C2CCC1CC(NC(=O)C(C)(CO)c1ccccc1)C2 (stereo not shown) | 52 | 83 |  | 150 | 230 |  |  | < 50 |  |  |  |  |  |
| CN1C2CCC1CC(OC(=O)C(C)(CO)c1ccccc1)C2 (stereo not shown) | 0.68 | 0.58 | 11 | 2 | 3.1 |  |  |  |  |  |  |  |  |
| COCC(C)(C(=O)OC1CC2CCC(C1)N2C)c1ccccc1 (stereo not shown) | 8.5 | 7.4 | 72 | 13 | 19 |  |  |  |  |  |  |  |  |
| CN1C2CCC1CC(OC(=O)C(CO)(CC1CC1)c1ccccc1)C2 (stereo not shown) | 0.99 | 0.57 | 39 | 1.3 | 3.4 |  |  |  |  |  |  |  |  |
| CN1C2CCC1CC(OC(=O)C(CO)(CO)c1ccccc1)C2 (stereo not shown) | 4.5 | 3 | 54 | 4.1 | 17 |  |  |  |  |  |  |  |  |
| CN1C2CCC1CC(OC(=O)C(F)(CO)c1ccccc1)C2 (stereo not shown) | 0.71 | 0.48 | 15 | 2.9 | 3.5 |  |  |  |  |  |  |  |  |
| CN1C2CCC1CC(OC(=O)C(CO)(CC(F)(F)F)c1ccccc1)C2 (stereo not shown) | 1.9 | 1.7 |  | 2 | 8.2 |  |  |  |  |  |  |  | 240 |
